The target in one test is GSK3β (Homo sapiens, UniProt P49841). Briefly: GSK3β kinase assay (Caliper LabChip3000 mobility shift, fluoresceinated peptide substrate). Format: biochemical. Particulars: for IC50: 250 pM enzyme, 20 uM ATP, 1.5 uM peptide, 20 hours room temperature, first value of cell GSK3β/GSK3α, read-out: GSK3β (nM), IC50.
The next test deals with pTau. Description: pTau assay (no method described). Format: cell-based.
The next test deals with GSK3α (Homo sapiens, UniProt P49840). Description: GSK3α kinase assay (Caliper LabChip3000 mobility shift, fluoresceinated peptide substrate).

Each structure is given as a SMILES string. pIC50: −log10 of the molar value. Where two headings read alike, the source gives them in different places.

One may read the IC50 as the concentration that inhibits the measured activity by half. A word on the pIC50: it is −log10 of the IC50, conventionally taken in molar units.

Sequence of GSK3α (P49840 whole entry, species assumed): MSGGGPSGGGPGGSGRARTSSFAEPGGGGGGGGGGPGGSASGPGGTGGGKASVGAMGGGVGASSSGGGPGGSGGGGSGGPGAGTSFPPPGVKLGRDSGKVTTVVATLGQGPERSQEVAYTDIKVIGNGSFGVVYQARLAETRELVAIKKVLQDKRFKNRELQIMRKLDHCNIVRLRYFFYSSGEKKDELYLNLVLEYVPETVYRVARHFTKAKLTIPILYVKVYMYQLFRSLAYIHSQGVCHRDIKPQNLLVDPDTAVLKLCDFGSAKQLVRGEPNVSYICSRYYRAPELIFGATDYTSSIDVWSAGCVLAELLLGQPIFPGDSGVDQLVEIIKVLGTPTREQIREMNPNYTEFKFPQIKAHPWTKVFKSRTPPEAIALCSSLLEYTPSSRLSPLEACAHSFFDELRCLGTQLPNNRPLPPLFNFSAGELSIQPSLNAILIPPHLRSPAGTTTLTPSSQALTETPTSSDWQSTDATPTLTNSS
Sequence of GSK3β (P49841 whole entry, species assumed): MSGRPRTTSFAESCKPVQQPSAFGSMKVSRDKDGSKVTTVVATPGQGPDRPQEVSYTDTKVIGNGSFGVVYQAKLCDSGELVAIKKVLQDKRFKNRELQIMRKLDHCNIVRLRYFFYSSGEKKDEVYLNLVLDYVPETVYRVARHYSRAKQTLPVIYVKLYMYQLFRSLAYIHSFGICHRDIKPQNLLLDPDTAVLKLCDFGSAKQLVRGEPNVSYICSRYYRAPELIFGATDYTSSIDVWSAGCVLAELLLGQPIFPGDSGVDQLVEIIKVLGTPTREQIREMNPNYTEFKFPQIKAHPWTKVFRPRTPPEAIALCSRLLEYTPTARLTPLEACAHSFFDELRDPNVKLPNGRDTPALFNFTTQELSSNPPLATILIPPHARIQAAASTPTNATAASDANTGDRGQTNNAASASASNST

For the compound `COc1ccc(Nc2nccc(C(=O)Nc3cnccc3-c3ccccc3)n2)cc1Cl` [Example 18, 2-((3-Chloro-4-methoxyphenyl)amino)-N-(4-phenylpyridin-3-yl)pyrimidine-4-carboxamide], the IC50 on GSK3β came to 0.23 nM. In addition, the pIC50 in the test with pTau was 7.43; on GSK3α, 9.49.
In the same order, the values of `COc1ccc(Nc2nccc(C(=O)Nc3cnccc3-c3ccccc3)n2)cc1F` [Example 19, 2-((3-Fluoro-4-methoxyphenyl)amino)-N-(4-phenylpyridin-3-yl)pyrimidine-4-carboxamide] are 0.18 nM, 7.77 and 9.77.
In the same order, the values of `O=C(Nc1cnccc1-c1ccccc1)c1ccnc(Nc2ccc(C(F)(F)F)cc2Cl)n1` [Example 20, 2-((2-Chloro-4-(trifluoromethyl)phenyl)amino)-N-(4-phenylpyridin-3-yl)pyrimidine-4-carboxamide] are 24 nM, 5.24 and 7.80.
Turning to `Cc1cc(C#N)ccc1Nc1nccc(C(=O)Nc2cnccc2-c2ccccc2)n1` [Example 21, 2-((4-Cyano-2-methylphenyl)amino)-N-(4-phenylpyridin-3-yl)pyrimidine-4-carboxamide], at GSK3β, the IC50 amounted to 0.43 nM. Further, the negative logarithm of the IC50 (pIC50) was 7.01 in the test on pTau and 9.46 at GSK3α.
In the same order, the values of `O=C(Nc1cnccc1-c1ccccc1)c1ccnc(Nc2ccc(Cl)cc2Cl)n1` [Example 23, 2-((2,4-Dichlorophenyl)amino)-N-(4-phenylpyridin-3-yl)pyrimidine-4-carboxamide] are 6.2 nM, 5.80 and 8.32.
For `N#Cc1ccc(Nc2nccc(C(=O)Nc3cnccc3-c3ccccc3)n2)c(Cl)c1` [Example 24, 2-((2-Chloro-4-cyanophenyl)amino)-N-(4-phenylpyridin-3-yl)pyrimidine-4-carboxamide] the same measures were 3.8 nM, 6.77 and 8.80.
With `O=C(Nc1cnccc1-c1ccccc1)c1ccnc(Nc2ccc(C(F)(F)F)cc2F)n1` [Example 25, 2-((2-Fluoro-4-(trifluoromethyl)phenyl)amino)-N-(4-phenylpyridin-3-yl)pyrimidine-4-carboxamide], the pIC50 was 8.48 at GSK3β, 5.32 with pTau and 8.66 on GSK3α.
As for `O=C(Nc1cnccc1-c1ccccc1)c1ccnc(Nc2ccc(Cl)cc2F)n1` [Example 26, 2-((4-Chloro-2-fluorophenyl)amino)-N-(4-phenylpyridin-3-yl)pyrimidine-4-carboxamide], the IC50 at GSK3β was 0.57 nM. Further, the pIC50 with pTau was 6.96; at GSK3α it was 9.48.
On to `N#Cc1ccc(Nc2nccc(C(=O)Nc3cnccc3-c3ccccc3)n2)cc1Cl` [Example 27, 2-((3-Chloro-4-cyanophenyl)amino)-N-(4-phenylpyridin-3-yl)pyrimidine-4-carboxamide], for which the pIC50 was 9.62 on GSK3β, 7.70 in the test with pTau and 9.80 at GSK3α.
For `N#Cc1ccc(Nc2nccc(C(=O)Nc3cnccc3-c3ccccc3)n2)cc1C(F)(F)F` [Example 28, 2-((4-Cyano-3-(trifluoromethyl)phenyl)amino)-N-(4-phenylpyridin-3-yl)pyrimidine-4-carboxamide], the pIC50 at GSK3β was 8.82; with pTau, 6.77; on GSK3α, 9.05.
For `O=C(Nc1cnccc1-c1ccccc1)c1ccnc(Nc2ccc(OC(F)F)cc2Cl)n1` [Example 29, 2-((2-Chloro-4-(difluoromethoxy)phenyl)amino)-N-(4-phenylpyridin-3-yl)pyrimidine-4-carboxamide], at GSK3β, the IC50 was 4.6 nM. The figures for the pIC50 in the test with pTau and on GSK3α were 5.85 and 8.59, respectively.
As for `O=C(Nc1cnccc1-c1ccccc1)c1ccnc(Nc2c(F)cc(Cl)cc2F)n1` [Example 30, 2-((4-Chloro-2,6-difluorophenyl)amino)-N-(4-phenylpyridin-3-yl)pyrimidine-4-carboxamide], the half-inhibitory concentration (IC50) at GSK3β was 3.9 nM. The figures for the pIC50 in the test with pTau and on GSK3α were 6.46 and 8.74, respectively.

The record behind these values is patent US10752609B2, “GSK-3 inhibitors” (priority 2016, dated 2020).
